{
  "source": "patent US20200268728A1",
  "about": "“DRUG TARGETING CANCER STEM CELL” (Sumitomo Dainippon Pharma Co., Ltd., priority 2016, published 2020)",
  "key": {"LNCap cells": {"test_system": "LNCap cells", "test": "Combination with Example 24, inhibitory effect on sphere-forming ability (Test Example 6)", "type": "cell-based", "conditions": "LNCap sphere culture, test compound combined with Example 24 (2-1000 nmol/L), 4 days", "method": "After the culture, CellTiterGlo (Promega) was added into all of the wells, and the plate is allowed to stand at room temperature for 10 minutes to measure the intensity of luminescence of each well. […] The formula for calculating the rate is shown below.\nSphere formation rate (%)=(Lsample)/(Lcontrol)×100\nThe value obtained by dividing the sphere formation rate by 100 and subtracting the calculated value from 1 is defined as a sphere formation inhibitory effect. The formula for calculating the effect is shown below.\nSphere formation inhibitory effect=1−(Sphere formation rate/100)\nAlso, the measured cell survival rate of the combination was defined as (Ld).\nThe minimum value thereof (sCI) was used as the criteria for screening."}, "HCT-116 cells": {"test_system": "HCT-116 cells", "test": "Anti-tumor effect to HCT-116 tumor-bearing mouse (Test Example 2)", "type": "in vivo", "conditions": "oral, read-out: T/C (%); for response vs control in vivo at 150 mg/kg: dosage 150 mg/kg", "excerpt": "The present compound can be used to evaluate the anti-tumor effect thereof. A 4 to 7-week-old nude mouse (BALB/cAnNCrj-nu/nu, female, CHARLES RIVER LABORATORIES JAPAN, INC.) received intradermal transplantation of HCT-116 cells (ATCC) in an amount of 3×10^6 cells/mouse around the ventral portion. The engraftment of HCT-116 cells was observed 5 to 14 days after the transplantation, and then each compound suspended in a solvent such as 0.5% methylcellulose solution was orally administrated to the mouse in a dose of 1 to 200 mg/kg one to twice daily. The tumor volume was measured over time after the administration to evaluate the effect for reducing the tumor volume by the administration of each compound. The tumor volume can be calculated from the minor axis and the major axis of the tumor measured with a digital caliper (Mitutoyo) according to the following formula:\nTumor volume [mm^3]=0.5×minor axis [mm]×(major axis [mm])^2\nThe tumor volume in control administration group treated with only a solvent such as 0.5% methylcellulose solution was compared with that of the present compound administration group, and T/C value was calculated according the following formula to evaluate the anti-tumor effect of the present compound.\nT/C(%)=(the tumor volume at the end of administration in the present compound administration group−the tumor volume at the start of administration in the present compound administration group)/(the tumor volume at the end of administration in the control administration group−the tumor volume at the start of administration in the control administration group)×100\nThe T/C values (%) of the present compound on each dosage and administration period in the HCT-116 tumor-bearing mouse are shown below."}, "[1]": {"conditions": "HCT-116, 456 h, administration period 19 day"}},
  "note": "Structures can show the parent of a compound that is named as a salt. Where two headings read alike, the source gives them in different places.",
  "data": [
    {"smiles": "CC(O)(CS(=O)(=O)c1ccc(F)cc1)C(=O)Nc1ccc(C#N)c(C(F)(F)F)c1", "note": "(centres unmarked) [Bicalutamide]", "values": [
      {"measurement": "sCI, minimum (Ld)/(Lc)", "setting": "LNCap cells", "result": 0.421}
    ]},
    {"smiles": "CNC(=O)c1ccc(N2C(=S)N(c3ccc(C#N)c(C(F)(F)F)c3)C(=O)C2(C)C)cc1F", "note": "[Enzalutamide]", "values": [
      {"measurement": "sCI, minimum (Ld)/(Lc)", "setting": "LNCap cells", "result": 0.826}
    ]},
    {"smiles": "O=C(/C=C/c1cccnc1)Nc1cn(Cc2cccc(Cl)c2)cn1", "note": "[Example 9-2, (2E)-N-(1-(3-Chlorobenzyl)-1H-imidazol-4-yl)-3-(pyridin-3-yl)prop-2-enamide dihydrochloride]", "values": [
      {"measurement": "response vs control in vivo at 150 mg/kg", "setting": "HCT-116 cells; HCT-116, 384 h, administration period 16 day", "result": 65, "unit": "%"}
    ]},
    {"smiles": "COc1ccc(C(=O)Nc2cn(Cc3cccc(Cl)c3)cn2)cc1OC", "note": "[Example 10-2, N-[1-(3-Chlorobenzyl)-1H-imidazol-4-yl]-3,4-dimethoxybenzamide hydrochloride]", "values": [
      {"measurement": "response vs control in vivo at 150 mg/kg", "setting": "HCT-116 cells; [1]", "result": 53, "unit": "%"}
    ]},
    {"smiles": "COc1ccc(C(=O)Nc2cn(Cc3ccc(F)c(F)c3)cn2)cc1OC", "note": "[Example 11-2]", "values": [
      {"measurement": "response vs control in vivo at 150 mg/kg", "setting": "HCT-116 cells; [1]", "result": 52, "unit": "%"}
    ]},
    {"smiles": "COc1ccc(C(=O)Nc2cn(Cc3cc(F)cc(F)c3)cn2)cc1OC", "note": "[Example 12-2]", "values": [
      {"measurement": "response vs control in vivo at 150 mg/kg", "setting": "HCT-116 cells; [1]", "result": 84, "unit": "%"}
    ]},
    {"smiles": "COc1ccc(C(=O)Nc2cn(Cc3cc(F)c(F)c(F)c3)cn2)cc1OC", "note": "[Example 13-2]", "values": [
      {"measurement": "response vs control in vivo at 15 mg/kg", "setting": "HCT-116 cells; HCT-116, 528 h, dosage 15 mg/kg, administration period 22 day", "result": 72, "unit": "%"},
      {"measurement": "response vs control in vivo at 150 mg/kg", "setting": "HCT-116 cells; HCT-116, 528 h, administration period 22 day", "result": 45, "unit": "%"}
    ]}
  ]
}
